This is an account of results in patent US20240335395A1, “COMPOSITIONS AND METHODS FOR PREVENTING AND/OR TREATING DISEASE ASSOCIATED WITH IL-23 EXPRESSION” (ALLSPIM, priority 2021, published 2024).

Structures are written as SMILES.

The test system of one assay is IL-17. The experiment in a line: IL-17 protein in culture supernatant of RA-patient synovial cells. In kind it is cell-based, human. As to conditions: increasing concentrations.
Assay [1] deals with immune cells from the peritoneal cavity. The experiment in a line: Endometriosis mouse model, immune cell proportions of the peritoneal cavity (flow cytometry). Type of assay: in vivo. As to conditions: 50 mg/kg/day, 5 times a week, 6 weeks. On the procedure: Experimental design. Balb/C female mice (10 weeks old) were habituated for 3 days to take a jelly containing (group EDT+2,4D) or not (groups No EDT and EDT+Vehicle) the compound. Surgical implantation of endometrial tissue from syngenic female in peritoneum, was performed at day 0 for groups EDT+Vehicle and EDT+2,4D. […] The vehicle or treatment was then given 5 times a week (50 mg/kg/day) during 6 weeks. Mice were then sacrificed and the peritoneal inflammation was assessed. All the details of the protocol are depicted in FIG. 27. Cytokine measurement in cell-free peritoneal lavage. After mice were euthanized, 5 mL of PBS was injected into the peritoneal cavity and the diluted peritoneal fluid containing the cells was then retrieved. The cells were pelleted by centrifugation at 500×g 4° C. and the supernatant (cell-free peritoneal fluid) was frozen at −80° C. for subsequent cytokine concentration measurement by ELISA. Cytokine concentration was assessed by ELISA kit in the peritoneal fluid (ThermoFisher, Mouse IL-1β, IL6 and TNFalpha Uncoated ELISA). […] The optical density was read with the Clariostar Plus Microplate Reader (BMG LABTECH), through the Clario software. Concentrations were calculated from a standard curve according to the manufacturer's protocol. Phenotypic study of immune cells from the peritoneal cavity assessed by flow cytometry. The pelleted peritoneal cells were resuspended in PBS-2% FBS and counted. One million cells were stained with the following fluorophore-conjugated antibodies purchased from BioLegend: CD45 BV510, CD11b APC-Cy7, CD11c PE, F4/80 BV711, CD80 PE Cy5, CD206 AF647, Ly-6C, PE-Cy7, CCR2 BV786 et CXCR4 BV421, CD45R/B220 PE Texas-Red, CD3E FITC, NK1.1 BV605 and CD69 PerCP-Cy5.5, Zombie-UV. Cells were incubated 20 min in the dark at 4° C., washed with PBS-2% FBS, and were fixed with paraformaldehyde 4% in 5 mL round-bottom polystyrene tubes (Falcon™ 352054). Compensation was adjusted with Ultracomp beads (ThermoFisher). […] All data were collected on LSR Fortessa flow cytometer (BD Bioscience, USA) and analyzed with FlowJo software. […]

The subject of assay [2] is IL-17/IL-23 and TNF signaling pathway-associated cytokine genes and chemokine genes. Briefly: Transcription of IL-17/IL-23 and TNF signature genes in LPS-stimulated THP-1 cells (qPCR). As to conditions: 2 h; 2,4-D 5-20 μM, DEX 20-80 ng/ml. Type of assay: cell-based, human. On the procedure:
Sample Collection and Preparation. THP-1 cells, a human leukemia monocyte-derived cell line, have been widely used as a model to study the modulation of the immune response and the function of monocytes and monocyte-derived macrophages. Here, lipopolysaccharide (LPS)-stimulated THP-1 cells were used as a model to study the cytokine storm in vitro (Chanput et al., 2014). THP-1 cells (purchased from American Type Culture Collection, Rockville, MD) were grown in RPMI 1640 culture medium (Gibco) supplemented with 10% fetal bovine serum (FBS) (Gibco, UK), 0.05 mM 2-mercaptoethanol, and 1% penicillin/streptomycin (Invitrogen) at 37° C. in 5% CO2 in a humidified incubator. Cultured cells were plated into culture plates in appropriate volumes with a cell density of 5×10^5 cells/ml. 2,4-D was purchased from Wuhan ChemFaces Biochemical Co., Ltd (Hubei, China) and tested for cytotoxicity in THP-1 cells overnight using a commercial MTT Cell Proliferation and Cytotoxicity Assay Kit (Beyotime, Shanghai, China). […]
Real-Time Quantitative PCR. Real-time quantitative PCR was performed in triplicate using the TB Green qPCR master mix (Takara Biomedical Technology Co., Ltd, Dalian, China) on an ABI 7500 Real-Time PCR System (Thermo, USA). […] The ΔΔCT method was used to quantify relative mRNA levels as described above in Example 1 (Applied Biosystems). Data are expressed as mean±SD. […]

Take `COc1cc(O)c(OC)c(O)c1C(=O)/C=C/c1ccccc1` [2,4-D, 2′,4′-dihydroxy-3′,6′-dimethoxychalcone]: in the assay on IL-17, the “concentration of IL-17 protein in the culture supernatant” value is on record as “significantly inhibited”. Besides, in assay [1], the “global T cell proportion” value is listed as “did not affect”, the “proportion of NK cells amongst the peritoneal cells” value is “significantly reduced” and the proportion of macrophages result is recorded as “not changed”. Moreover, the “suppression of transcription of IL-17/IL-23 and TNF signatures” value in assay [2] is given as 63-143 fold.
